Measured values as given in patent US11304419B2, “Methods to induce heat stress tolerance in plants” (Valent BioSciences LLC, priority 2020, dated 2022).

Assays:
Type in all cases: in vivo
[1] = system: Apogee wheat; assay: Heat stress tolerance in wheat following ACC application during flowering; conditions: heat stress 36/30° C. 7 days, n = 8
Experimental: 24 pots of Apogee wheat were grown in a greenhouse under 3 consecutive growing conditions. First, the wheat was planted in ProMix® growth media and grown for about 6 weeks in a growth cabinet at 24/18° C. day/night temperature under a 16/8 hour light/dark photoperiod. Plants were at Feekes stage 10.4-10.5 (flowering stage) following the first set of growth conditions. Next, spray applications of 0, 30 or 100 ppm ACC (n=8) were made using a tank sprayer. Next, 2 days following treatment, the plants were transferred to a growth chamber at 36/30° C. day/night temperature under a 16/8-hour light/dark photoperiod for 7 days. These conditions constitute significant heat stress. Finally, the plants were then returned to growth chamber at 24/18° C. day/night temperature under a 16/8-hour light/dark photoperiod for about 5 additional weeks. Plants were then destructively harvested and measured for total spike number, spike weight, grain weight, yield per spike, A spike number and harvest index. A spike number is calculated by subtracting the number of reproductive tillers at treatment from the number of reproductive tillers at harvest. An increase in reproductive tillers is indicative of an increase in reproductive success. Harvest index is calculated by dividing pounds of grain by the total pounds of above ground biomass.

[2] = system: Apogee wheat; assay: Heat stress tolerance in wheat following ACC application at Feekes stage 5 (Example 3); conditions: heat stress 34/28° C. 4 days; for % Reproductive Tillers / Fresh Weight / Total Dry Weight / Total Spike Number / Total Tiller Number / Δ Canopy Density: n = 8; for % Reproductive Tillers, percent increase over stress control / Fresh Weight, percent increase over stress control / Total Dry Weight, percent increase over stress control / Total Spike Number, percent increase over stress control / Total Tiller Number, percent increase over stress control / Δ Canopy Density, percent increase over stress control: vs stress control (no heat); for % Reproductive Tillers, percent increase over treatment control / Fresh Weight, percent increase over treatment control / Total Dry Weight, percent increase over treatment control / Total Spike Number, percent increase over treatment control / Total Tiller Number, percent increase over treatment control / Δ Canopy Density, percent increase over treatment control: vs treatment control (heat, no ACC)
Experimental: Apogee wheat was seeded into ProMix BX (Premier Horticulture) and grown in a growth cabinet under the following conditions: 24/18° C. day/night temperature under a 16/8 hour light/dark photoperiod. Plants were at Feekes stage 5 following the first set of growth conditions. Next, spray applications of 0, 0, 100 or 300 ppm ACC (n=8) were made using a track sprayer on Oct. 4, 2019. […] These conditions constitute significant heat stress. The other set of control plants (“stress control”) remained in the first growth cabinet. Finally, the plants were then returned to the first growth cabinet for about 14 days where plants reached Feekes stage 10.1 (head emergence). Plants were then destructively harvested and measured for total spike number, fresh weight, total reproductive tiller number, percent reproductive tillers, A canopy density and total dry weight. Percent reproductive tillers is calculated by dividing the number of reproductive tillers by the total number of spikes at harvest. A canopy density is calculated by subtracting the canopy density at treatment from the canopy density at harvest.

[3] = system: Butterhead lettuce; assay: Heat stress tolerance in lettuce following ACC application at rosette stage; conditions: heat stress 34/30° C. nine days; for Canopy Density / Fresh Weight / Δ Canopy Density: n = 5; for Canopy Density, percent increase over stress control / Fresh Weight, percent increase over stress control / Δ Canopy Density, percent increase over stress control: vs stress control; for Canopy Density, percent increase over treatment control / Fresh Weight, percent increase over treatment control / Δ Canopy Density, percent increase over treatment control: vs treatment control
Experimental: Butterhead lettuce was seeded into ProMix BX (Premier Horticulture) and grown in a greenhouse. Three weeks post-sowing the lettuce was transferred to a growth cabinet under the following conditions: 24/18° C. day/night temperature under a 16/8 hour light/dark photoperiod. Plants were at head formation (rosette) stage following the first set of growth conditions. 4 days after transfer canopy density was calculated. Next, spray applications of 0, 10, 30 or 100 ppm ACC (n=5) were made using a track sprayer on Sep. 21, 2020. Next, two days following treatment, half of the plants were transferred to a second growth cabinet at 34/30° C. day/night temperature under a 16/8-hour light/dark photoperiod for nine days. These conditions constitute significant heat stress. Plants were then destructively harvested and measured for fresh weight, size, canopy density and A canopy density. A canopy density is calculated by subtracting the canopy density at treatment from the canopy density at harvest.

[4] = 30 ppm ACC spray at Feekes stage 10.4-10.5
[5] = 100 ppm ACC spray at Feekes stage 10.4-10.5
[6] = 100 ppm ACC spray at Feekes stage 5
[7] = 300 ppm ACC spray at Feekes stage 5
[8] = 10 ppm ACC spray at rosette stage
[9] = 30 ppm ACC spray at rosette stage
[10] = 100 ppm ACC spray at rosette stage

NC1(C(=O)O)CC1 [ACC, 1-amino-1-cyclopropanecarboxylic acid]
Grain Weight [1, 4]: 3.1 grams | Harvest Index [1, 4]: 0.32 | Spike Weight [1, 4]: 5.39 grams | Total Spike Number [1, 4]: 6.25 | Yield per Spike [1, 4]: 0.5 grams | Δ Spike Number [1, 4]: 1.75 | Grain Weight [1, 5]: 3.37 grams | Harvest Index [1, 5]: 0.34 | Spike Weight [1, 5]: 5.69 grams | Total Spike Number [1, 5]: 6.5 | Yield per Spike [1, 5]: 0.53 grams | Δ Spike Number [1, 5]: 2.13 | % Reproductive Tillers [2, 6]: 63.80% | Fresh Weight [2, 6]: 17.95 grams | Total Dry Weight [2, 6]: 4.31 grams | Total Spike Number [2, 6]: 7 | Total Tiller Number [2, 6]: 4.38 | Δ Canopy Density [2, 6]: 2.65% | % Reproductive Tillers, percent increase over stress control ([2]; 100 ppm ACC): (−11.5%) | Fresh Weight, percent increase over stress control ([2]; 100 ppm ACC): (4.6%) | Total Dry Weight, percent increase over stress control ([2]; 100 ppm ACC): (−5.5%) | Total Spike Number, percent increase over stress control ([2]; 100 ppm ACC): (24.3%) | Total Tiller Number, percent increase over stress control ([2]; 100 ppm ACC): (9.5%) | Δ Canopy Density, percent increase over stress control ([2]; 100 ppm ACC): (3.5%) | % Reproductive Tillers, percent increase over treatment control ([2]; 100 ppm ACC): [−0.8%] | Fresh Weight, percent increase over treatment control ([2]; 100 ppm ACC): [5.8%] | Total Dry Weight, percent increase over treatment control ([2]; 100 ppm ACC): [11.1%] | Total Spike Number, percent increase over treatment control ([2]; 100 ppm ACC): [12.0%] | Total Tiller Number, percent increase over treatment control ([2]; 100 ppm ACC): [12.9%] | Δ Canopy Density, percent increase over treatment control ([2]; 100 ppm ACC): [5.2%] | % Reproductive Tillers [2, 7]: 63.10% | Fresh Weight [2, 7]: 16.74 grams | Total Dry Weight [2, 7]: 4.33 grams | Total Spike Number [2, 7]: 6.38 | Total Tiller Number [2, 7]: 3.88 | Δ Canopy Density [2, 7]: 2.36% | % Reproductive Tillers, percent increase over stress control ([2]; 300 ppm ACC): (−12.5%) | Fresh Weight, percent increase over stress control ([2]; 300 ppm ACC): (−2.4%) | Total Dry Weight, percent increase over stress control ([2]; 300 ppm ACC): (−5.0%) | Total Spike Number, percent increase over stress control ([2]; 300 ppm ACC): (13.3%) | Total Tiller Number, percent increase over stress control ([2]; 300 ppm ACC): (−3.0%) | Δ Canopy Density, percent increase over stress control ([2]; 300 ppm ACC): (−7.8%) | % Reproductive Tillers, percent increase over treatment control ([2]; 300 ppm ACC): [−1.9%] | Fresh Weight, percent increase over treatment control ([2]; 300 ppm ACC): [−1.4%] | Total Dry Weight, percent increase over treatment control ([2]; 300 ppm ACC): [11.6%] | Total Spike Number, percent increase over treatment control ([2]; 300 ppm ACC): [2.1%] | Total Tiller Number, percent increase over treatment control ([2]; 300 ppm ACC): [0%] | Δ Canopy Density, percent increase over treatment control ([2]; 300 ppm ACC): [−6.3%] | Canopy Density [3, 8]: 15.58 | Fresh Weight [3, 8]: 93.94 grams | Δ Canopy Density [3, 8]: 5.12 | Canopy Density, percent increase over stress control ([3]; 10 ppm ACC): (−11.5%) | Fresh Weight, percent increase over stress control ([3]; 10 ppm ACC): (−8.5%) | Δ Canopy Density, percent increase over stress control ([3]; 10 ppm ACC): (−24.9%) | Canopy Density, percent increase over treatment control ([3]; 10 ppm ACC): [5.9%] | Fresh Weight, percent increase over treatment control ([3]; 10 ppm ACC): [11.6%] | Δ Canopy Density, percent increase over treatment control ([3]; 10 ppm ACC): [46.3%] | Canopy Density [3, 9]: 16.65 | Fresh Weight [3, 9]: 115.11 grams | Δ Canopy Density [3, 9]: 5.08 | Canopy Density, percent increase over stress control ([3]; 30 ppm ACC): (−5.4%) | Fresh Weight, percent increase over stress control ([3]; 30 ppm ACC): (12.1%) | Δ Canopy Density, percent increase over stress control ([3]; 30 ppm ACC): (−25.5%) | Canopy Density, percent increase over treatment control ([3]; 30 ppm ACC): [13.2%] | Fresh Weight, percent increase over treatment control ([3]; 30 ppm ACC): [36.8%] | Δ Canopy Density, percent increase over treatment control ([3]; 30 ppm ACC): [45.1%] | Canopy Density [3, 10]: 15.80 | Fresh Weight [3, 10]: 97.51 grams | Δ Canopy Density [3, 10]: 4.11 | Canopy Density, percent increase over stress control ([3]; 100 ppm ACC): (−10.2%) | Fresh Weight, percent increase over stress control ([3]; 100 ppm ACC): (−5.1%) | Δ Canopy Density, percent increase over stress control ([3]; 100 ppm ACC): (−39.7%) | Canopy Density, percent increase over treatment control ([3]; 100 ppm ACC): [7.4%] | Fresh Weight, percent increase over treatment control ([3]; 100 ppm ACC): [15.9%] | Δ Canopy Density, percent increase over treatment control ([3]; 100 ppm ACC): [17.4%]
